# Data published in patent US7132428B2, “Pyrazoloisoquinoline derivative as kinase inhibitors for the treatment of various disorders” (Aventis Pharmaceuticals Inc., priority 2003, dated 2006).
# How the values were obtained:
# [1] = system: human peripheral blood lymphocytes; assay: Cytotoxicity by LDH release, LPS-stimulated human peripheral blood lymphocytes; assay type: cell-based
# Experimental: (§1) The pyrazoloisoquinoline derivatives according to the invention were tested for inhibitory activity against NIK in various in vitro assay systems. In this connection, human peripheral blood lymphocytes were preincubated for 1 h with different concentrations of the compounds and then stimulated for 24 h with LPS or IL1β. After that, a commercially obtainable ELISA test kit was used to measure the release of TNFα in the culture supernatant, and the IC50 for the given compound was determined. The cytotoxicity was measured by way of LDH release using a commercially obtainable test kit and the LD50 for the given compound was determined.
# [2] = system: human peripheral blood lymphocytes; assay: Cytotoxicity by LDH release, IL1β-stimulated human peripheral blood lymphocytes; assay type: cell-based
# Experimental: as §1
Compound,melting point,Cytotoxicity LD50 [1],Cytotoxicity LD50 [2]
"CCc1n[nH]c2c1nc(-c1ccccc1)c1ccccc12 [Example 46, 5-phenyl-3-ethyl-1H-pyrazolo[4,3-c]isoquinoline]",250 to 251 °C,–,–
"Cc1n[nH]c2c1nc(-c1cccc(O)c1)c1ccccc12 [Example 3, 3-(3-Methyl-1H-pyrazolo[4,3-c]isoquinolin-5-yl)phenol]",–,>100 µM,>100 µM
"c1ccc(-c2nc3c(-c4ccccc4)n[nH]c3c3ccccc23)cc1 [Example 1, 3,5-Diphenyl-1H-pyrazolo[4,3-c]isoquinoline]",–,>100 µM,>100 µM
"COc1cccc(-c2nc3c(C)n[nH]c3c3ccccc23)c1 [Example 2, 5-(3-Methoxyphenyl)-3-methyl-1H-pyrazolo[4,3-c]isoquinoline]",–,>100 µM,>100 µM
"Cc1n[nH]c2c1nc(-c1ccccc1)c1cc(Br)ccc12 [Example 62, 7-Bromo-3-methyl-5-phenyl-1H-pyrazolo[4,3-c]isoquinoline]",299 to 300 °C,–,–
"CCc1n[nH]c2c1nc(-c1cccnc1)c1ccccc12 [Example 47, 3-Ethyl-5-(pyridin-3-yl)-1H-pyrazolo[4,3-c)isoquinoline]",219 to 220 °C,–,–
"FC(F)(F)c1n[nH]c2c1nc(-c1ccccc1)c1ccccc12 [Example 75, 5-phenyl-3-trifluoromethyl-1H-pyrazolo[4,3-c]isoquinoline]",264 to 265 °C,–,–
